According to paper PMC11202002, “P18: Novel Anticancer Peptide from Induced Tumor-Suppressing Cells Targeting Breast Cancer and Bone Metastasis” (Cancers, 2024):

Experiments:
MDA-MB-231 cells [1] = test: Transwell invasion assay; type: cell-based, human; conditions: 25 µg/mL
Protocol: (§1) The invasion capacity of cancer cells in response to ACPs was assessed using 8 µm pore transwell chambers (353182, Thermo Fisher) in a 12-well plate. The chambers were coated with 300 µL Matrigel (100 µg/mL) and filled with 500 µL of the serum-free medium. After washing the chamber three times with the serum-free medium, approximately 7 × 10^4 cells in 300 µL serum-free DMEM were placed in the upper chamber, while 800 µL medium was added to the lower chamber. Cells that migrated to the lower side of the membrane were fixed with methanol and stained with crystal violet. Five random images were captured with an inverted optical microscope at 100× magnification, and the average number of stained cells, representing the invasion capacity, was determined.

MDA-MB-436 cells [2] = test: Transwell invasion assay; type: cell-based, human; conditions: 25 µg/mL
Protocol: as §1

MDA-MB-231 cells [3] = test: EdU-based proliferation assay; type: cell-based, human; conditions: 25 µg/mL
Protocol: (§2) Using 96-well plates with approximately 2000 cells per well, an MTT-based metabolic activity assay was performed. The cells were treated with agents and incubated for two days. On the fourth day, they were stained with 0.5 mg/mL thiazolyl blue tetrazolium bromide (M5655, Sigma). The optical density, used to assess metabolic activity, was measured at 562 nm. For the EdU-based proliferation activity assay, the cells were seeded in 96-well plates at about 1000 cells per well. A fluorescence-based cell proliferation kit (Click-iT™, EdU Alexa Fluor™ 488 Imaging Kit; Thermo Fisher, Waltham, MA, USA) was used according to the manufacturer’s instructions.

MDA-MB-436 cells [4] = test: EdU-based proliferation assay; type: cell-based, human; conditions: 25 µg/mL
Protocol: as §2

MCF7 cells = test: MTT-based cell viability assay; design: species or system human; conditions: 5, 10, 15, and 25 µg/mL of P18
Protocol: as §2

MDA-MB-231 cells [5] = test: MTT-based cell viability assay; design: species or system human
Protocol: as §2

MDA-MB-436 cells [6] = test: MTT-based cell viability assay; design: species or system human
Protocol: as §2

[7] = system: 4T1.2 mammary tumor cells; test: MTT-based cell viability assay; design: species or system mouse; conditions: 25 μg/mL
Protocol: as §2

[8] = system: RANKL-stimulated osteoclasts; test: Osteoclast differentiation and maturation; type: cell-based; conditions: 25 μg/mL
MDA-MB-231 cells [9] = test: Scratch-based motility assay; type: cell-based, human; conditions: 25 µg/mL, 24 h
Protocol: (§3) To evaluate the two-dimensional motility of cancer cells, a wound-healing scratch assay was utilized, and the change in the scratch area was determined. On day 1, ~3 × 10^5 cells were seeded in 12-well plates, and, on day 2, a scratch was made on the cell layer, with the tip of a plastic pipette. Using a light microscope (40×), cell-free zones were imaged after 0 h and 24 h, and the alteration in their areas was quantified by Image J (Version 1.54 f).

MDA-MB-436 cells [10] = test: Scratch-based motility assay; type: cell-based, human; conditions: 25 µg/mL, 24 h
Protocol: as §3

[11] = system: TT2 osteosarcoma cell line; test: MTT-based cell viability assay; conditions: TT2; 25 μg/mL
Protocol: as §2

PANC1 PDAC cells = test: MTT-based cell viability assay; conditions: 25 μg/mL
Protocol: as §2

PANC198 PDAC cells = test: MTT-based cell viability assay; conditions: PANC198 (PAN198); 25 μg/mL
Protocol: as §2

[12] = system: 4T1.2 mammary tumor cells; test: Scratch-based motility assay; type: cell-based, mouse; conditions: 25 μg/mL
Protocol: as §3

Col1, ALP, OCN = test: Western blot analysis of osteoblast development proteins; type: cell-based; conditions: Suppl. Figure S1d
Protocol: (§4) Cells were lysed using a RIPA lysis buffer (sc-24948, Santa Cruz Biotech, Dallas, TX, USA) containing protease inhibitors (PIA32963, Thermo Fisher) and phosphatase inhibitors (2006643, Cal-biochem, Billerica, MA, USA). The proteins were separated on 10–15% SDS gels (Bio-Rad Laboratories, Hercules, CA, USA) and transferred to a polyvinylidene difluoride membrane (IPVH00010, Millipore, Billerica, MA, USA). The membrane was incubated with primary antibodies, followed by incubation with secondary antibodies (7074S/7076S, Cell Signaling, Danvers, MA, USA). The antibodies used included those against Snail, p-Src, Src, cleaved caspase 3, caspase 3, RANKL, Cdc42, Col1 and RhoA (Cell Signaling), ALP (Santa Cruz Biotech), OCN (Abcam, Boston, MA, USA), with β-actin (Sigma) as a control. The protein levels were detected using SuperSignal West Femto Maximum Sensitivity Substrate (PI34096, Thermo Fisher) and a luminescent image analyzer (LAS-3000, Fuji Film, Tokyo, Japan).

[13] = system: MDA-MB-231 breast cancer cells; test: Western blot analysis; type: cell-based, human; conditions: 25 µg/mL
Protocol: as §4

[14] = system: MDA-MB-436 breast cancer cells; test: Western blot analysis; type: cell-based, human; conditions: 25 µg/mL
Protocol: as §4

Rac1 = test: FRET-based GTPase activity assay; type: cell-based; conditions: MDA-MB-231 cells; 25 µg/mL for 3 h
Text: (§5) The three FRET GTPase biosensors were utilized to monitor the activities of Rac1, Cdc42, and RhoA in response to ACPs. GTPase activity was estimated based on the emission ratio of yellow fluorescent protein (YFP) to cyan fluorescent protein (CFP), using a Nikon Ti-E inverted microscope with an EMCCD camera (Photometrics, Tucson, AZ, USA), a filter wheel controller (Sutter Instruments, Novato, CA, USA), and a Nikon Perfect Focus System. To reduce photobleaching, an Intensilight fluorescence illuminator (Nikon, Tokyo, Japan) was employed with a neutral-density 32 filter (3% transmittance). The images were captured with a 40× (0.75 numerical aperture) objective, and they were scaled utilizing the color bar, as previously published.
(§6) This study next investigated the role of P18 in regulating the activity of Rho family GTPases. MDA-MB-231 breast cancer cells were transfected with Rac1, Cdc42, or RhoA biosensors and treated with P18 at a concentration of 25 µg/mL for 3 h. The GTPase activity was assessed by measuring the emission ratio of the biosensor within individual live cells.

Cdc42 = test: FRET-based GTPase activity assay; type: cell-based; conditions: MDA-MB-231 cells; 25 µg/mL for 3 h
Text: as §5, §6

RhoA = test: FRET-based GTPase activity assay; type: cell-based; conditions: MDA-MB-231 cells; 25 µg/mL for 3 h
Text: as §5, §6

[15] = relative to cn = 1.00, peptide concentration not given, treated two days, OD 562 nm

TDYMVGSYGPR [P18]
transwell invasion (MDA-MB-231 cells [1]): decreased | transwell invasion (MDA-MB-436 cells [2]): inhibited | EdU-based proliferation (MDA-MB-231 cells [3]): decreased | EdU-based proliferation (MDA-MB-436 cells [4]): inhibited | decrease in MTT viability (MCF7 cells): dose-dependent | decrease in MTT viability (MDA-MB-231 cells [5]; 5, 10, 15, and 25 µg/mL of P18): dose-dependent | MTT-based relative viability (MDA-MB-231 cells [5]; [15]): 0.86 | decrease in MTT viability (MDA-MB-436 cells [6]; 5, 10, 15, and 25 µg/mL of P18): dose-dependent | MTT-based relative viability (MDA-MB-436 cells [6]; [15]): 0.82 | MTT-based viability [7]: consistently reduced | differentiation and maturation of RANKL-stimulated osteoclasts [8]: inhibited | number of multi-nucleated TRAP-positive osteoclasts (more than three nuclei) [8]: significantly reduced | scratch-based motility (MDA-MB-231 cells [9]): effectively reduced | scratch-based mobility (MDA-MB-436 cells [10]): inhibited | MTT-based viability [11]: significantly decreased | MTT-based viability (PANC1 PDAC cells): significantly decreased | MTT-based viability (PANC198 PDAC cells): significantly decreased | scratch-based mobility [12]: consistently reduced | expression of type I collagen (Col1), alkaline phosphatase (ALP), and osteocalcin (OCN) (Col1, ALP, OCN): upregulated | levels of RhoA and Cdc42 [13]: slight upregulation | levels of cleaved caspase 3 [13]: increasing | levels of p-Src and Snail [13]: downregulated | levels of RhoA and Cdc42 [14]: slight upregulation | levels of cleaved caspase 3 [14]: increasing | levels of p-Src and Snail [14]: downregulated | Rac1 GTPase activity (FRET biosensor emission ratio) (Rac1): no significant change | Cdc42 GTPase activity (FRET biosensor emission ratio) (Cdc42): significant decrease | RhoA GTPase activity (FRET biosensor emission ratio) (RhoA): significant decrease
